{"source": "patent US20240279612A1", "about": "“LIVER ORGANOID MANUFACTURING METHODS, LIVER ORGANOIDS OBTAINED WITH THE SAME, AND USES THEREOF” (INSTITUT NATIONAL DE LA SANTÉ ET DE LA RECHERCHE MÉDICALE, priority 2021, published 2024)", "key": {"CYP2B6": {"system": "CYP2B6", "experiment": "Induction of CYP2B6 activity (bupropion to hydroxybupropion, LC-MS/MS) in PHH", "conditions": "PHH model, versus basal (DMSO 0.1%)", "protocol": "(§1) The primary human hepatocyte (PHH) cell line was obtained from four different healthy donors. PHH cells culture was performed according to the LONZA protocol (described in Document #BR-CryoHep-1 07/20 www.bioscience.lonza.com © 2020 Lonza Walkersville, Inc) with cell seeding at 70,000 cells/well in collagen I-coated 96-well plates (Corning® BioCoat™ Collagen I 96 Clear Well Plate). One hour after seeding, the PHH cells were cultured by the Sandwich method using Matrigel (Corning® Matrigel® Matrix) according to the protocol described in Gijbels et al. (Experimental Cholestasis Research, 2019). PHH cells were used 3 days later (short duration) or 2 weeks later (long duration) for the experiments. PHH cell line was cultivated at 37° C. in a humidified atmosphere with 5% CO2.\n(§2) PHH and LO grown in 96-well plates were treated by adding 200 μl/well and HLCs in 6-well plates by adding 1 ml/well of CYP's inductors in a hepatocyte culture medium (HCM) without EGF (Lonza—CC-3198).\n(§3) CYPs were induced by different types of inducers (SIGMA) at different concentrations for 3 days (as detailed in TABLE 3): Omeprazole (50 μM), Rifampicin (10 μM), Imidazole (500 μM), Phenobarbital (500 μM) and CITCO (1 μM). A control condition (namely “basal”) is performed with DMSO […] instead of inducer. […]"}, "liver organoid (LO) [1]": {"system": "liver organoid (LO)", "conditions": "48 h", "protocol": "Steatosis was induced by amiodarone at 20 μM or ethanol at […] for 2 days after the end of differentiation (Day 28). After fixation of the cells with paraformaldehyde (PFA 4% in PBS) for 15 minutes at room temperature, the lipids were labelled with Nile Red (50 ng/ml) for 1 hour at room temperature and then washed three times with PBS (1000 μl). At this step, samples can be stored in PBS at 4° C.\n(§4) After the acquisition of different Z-stacks of the LOs, the images were analyzed and quantified by the image analysis software Metaxpress developed by Molecular Devices."}, "liver organoid (LO) [2]": {"system": "liver organoid (LO)", "experiment": "Internalization of LDL-bodipy by liver organoids", "type": "cell-based, human", "conditions": "20 hours, then 3 hours LDL-bodipy, compared to controls (FIG. 2)", "protocol": "Treatment with mevastatin (20, 25 and 30 μg/ml) or DMSO (0.1%) was performed for 20 hours after the end of differentiation (Day 28). After treatment, LOs were incubated with LDL-bodipy (Invitrogen, Ref: L3483) for 3 hours (INVITROGEN). Finally, once the incubation with LDL-bodipy was completed, the scaffolds were washed three times with HCM medium (LONZA) at 37° C. and then the cells were fixed with paraformaldehyde (PFA 4% in PBS) for 15 minutes at room temperature. At this stage, the samples can be stored in PBS at 4° C.\nas §4\nConcerning LDL internalization, it was noted that the LO model significatively reacted to mevastatin at concentrations of 20, 25 and 30 ug/ml with an increase in LDL-bodipy internalization of 14, 18 and 26% respectively compared to controls (FIG. 2)."}, "CYP1A2": {"system": "CYP1A2", "experiment": "Induction of CYP1A2 activity (phenacetin to acetaminophen, LC-MS/MS) in PHH", "type": "in vitro ADME, human", "conditions": "PHH model, omeprazole 50 μM for 3 days, versus basal (DMSO 0.1%)", "protocol": "as §1, §2, §3"}}, "note": "Read-outs that look alike come from different tables or passages of the source.", "data": [{"smiles": "Clc1ccc(-c2nc3sccn3c2/C=N/OCc2ccc(Cl)c(Cl)c2)cc1", "note": "[CITCO]", "values": [{"measurement": "induction of CYP2B6", "setting": "CYP2B6; CITCO 1 μM for 3 days", "value": 3.3, "unit": "times"}]}, {"smiles": "CCCCc1oc2ccccc2c1C(=O)c1cc(I)c(OCCN(CC)CC)c(I)c1", "note": "[amiodarone]", "values": [{"measurement": "increase in lipid accumulation", "setting": "liver organoid (LO) [1]; 40 µM", "value": 60, "unit": "%"}]}, {"smiles": "CCO", "note": "[ethanol]", "values": [{"measurement": "increase in lipid accumulation", "setting": "liver organoid (LO) [1]; 0.1 µM", "value": 29, "unit": "%"}]}, {"smiles": "CC[C@H](C)C(=O)O[C@H]1CCC=C2C=C[C@H](C)[C@H](CC[C@@H]3C[C@@H](O)CC(=O)O3)[C@H]21", "note": "[mevastatin]", "values": [{"measurement": "increase in LDL-bodipy internalization", "setting": "liver organoid (LO) [2]; mevastatin 20 ug/ml", "value": 14, "unit": "%"}, {"measurement": "increase in LDL-bodipy internalization", "setting": "liver organoid (LO) [2]; mevastatin 25 ug/ml", "value": 18, "unit": "%"}, {"measurement": "increase in LDL-bodipy internalization", "setting": "liver organoid (LO) [2]; mevastatin 30 ug/ml", "value": 26, "unit": "%"}]}, {"smiles": "COc1ccc2[nH]c([S+]([O-])Cc3ncc(C)c(OC)c3C)nc2c1", "note": "(centres unmarked) [omeprazole, Omeprazole]", "values": [{"measurement": "induction of CYP1A2", "setting": "CYP1A2", "value": 7.2, "unit": "times"}]}, {"smiles": "CCC1(c2ccccc2)C(=O)NC(=O)NC1=O", "note": "[phenobarbital, Phenobarbital]", "values": [{"measurement": "induction of CYP2B6", "setting": "CYP2B6; phenobarbital 500 μM for 3 days", "value": 5.8, "unit": "times"}]}]}
